Reference: PMC8159385, “Chemical synthesis of human syndecan-4 glycopeptide bearing O-, N-sulfation and multiple aspartic acids for probing impacts of the glycan chain and the core peptide on biological functions” (Chemical Science, 2020)
pKd: −log10 of the molar value. Like-named read-outs stand apart in the source and are kept apart here. Residues, ends and D or L forms follow the SMILES beside them. *: point of attachment. X1 = O=C(O)[C@H]1O[C@@H](O[C@H]2[C@@H](O)[C@@H](CO)O[C@@H](O[C@H]3[C@@H](O)[C@@H](CO)O[C@@H](O[C@@H]4CO[C@@H](*)[C@H](O)[C@H]4O)[C@@H]3O)[C@@H]2O)[C@H](O)[C@@H](O)[C@@H]1O[C@H]1O[C@H](COS(=O)(=O)O)[C@@H](O)[C@H](O)[C@H]1NS(=O)(=O)O; Biotin = O=C1N[C@H]2[C@H](CS[C@H]2CCCCC(=O)*)N1; Ahx = NCCCCCC(=O)O

Tests used:
heparanase = target: T1, heparanase (Homo sapiens, UniProt Q9Y251); assay: Fondaparinux colorimetric heparanase assay; format: biochemical; conditions: for inhibition at 3.3 µM: 3.3 μM compound; for inhibition at 3.3 µM / inhibition at 10 µM / inhibition at 33 µM: heparanase 5 nM; for inhibition at 10 µM: 10 μM compound; for inhibition at 33 µM: 33 μM compound
T1 sequence (Q9Y251 158-543 limits assumed): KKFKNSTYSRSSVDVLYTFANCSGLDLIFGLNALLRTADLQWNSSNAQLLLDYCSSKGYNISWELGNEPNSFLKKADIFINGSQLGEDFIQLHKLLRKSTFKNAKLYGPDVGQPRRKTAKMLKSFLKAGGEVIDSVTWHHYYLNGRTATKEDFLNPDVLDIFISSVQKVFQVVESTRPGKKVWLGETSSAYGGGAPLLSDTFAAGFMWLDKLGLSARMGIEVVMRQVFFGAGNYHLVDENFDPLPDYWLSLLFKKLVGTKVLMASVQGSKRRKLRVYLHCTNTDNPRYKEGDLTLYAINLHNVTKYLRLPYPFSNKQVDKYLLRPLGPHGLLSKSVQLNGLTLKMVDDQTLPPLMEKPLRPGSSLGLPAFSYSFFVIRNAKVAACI
T1 sequence (Q9Y251 36-109 limits assumed): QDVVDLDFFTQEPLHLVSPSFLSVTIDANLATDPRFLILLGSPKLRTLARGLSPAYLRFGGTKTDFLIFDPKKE
From the text: With the synthetic glycopeptide and the corresponding peptide and glycan in hand, we began to probe the impacts of glycan and peptide on biological functions of the glycopeptide. The endoglycosidase heparanase is an important enzyme for HS metabolism, which can cleave HS polysaccharide chains at the cell surface or in the extracellular matrix.[63] Heparanase activities are important for a variety of biological processes, including tumor metastasis and cell proliferation.[64] […]
General procedure for heparanase assays
Fondaparinux colorimetric heparanase assays were carried out in 96 well microplates (NEST Scientific 96 Well Cell Culture Plate, 701002) pre-treated with a solution of 4% BSA in phosphate-buffered saline containing 0.05% Tween 20 (PBST) for 2 h at 37 °C. A ssay solutions (100 ul) contained sodium acetate buffer (40 mM, pH 5.0) and fondaparinux ([…], MedChemExpress), heparanase (5 nM) and varying concentrations of compounds of interests or heparin. The mixture was kept at 37 °C for 20 h, which was followed by addition of a solution of WST-1 (100 μL of 1.69 mM WST-1 in 0.1 M NaOH) and incubation at 60 °C for 1 h after which the absorbance at 584 nm was measured (Fluostar Optima plate reader, BMG Labtech). […]

CCL-13 = CCL-13 (Homo sapiens, UniProt Q99616); assay: BLI binding assay, biotinylated compounds on streptavidin biosensors, CCL-13; design: key to K D CCL-13: Inactive denotes a KD value greater than 400 μM; conditions: for pKd: Table 2, read-out: K D CCL-13
Description: (§1) Cytokines and growth factors are important proteins modulating cellular functions, many of which are known to interact with HS.[1,8,34,67] To probe the impacts of the glycan and the core peptide, the binding of glycopeptide 1, pentasaccharide 30, and peptide 31 to several representative growth factors and cytokines including fibroblast growth factor 2 (FGF-2), interleukin 8 (IL-8) and chemokine (C–C motif ligand 13 (CCL-13)) respectively was tested using the biolayer interferometry (BLI). The biotinylated glycopeptide 1, pentasaccharide 30, and peptide 31 were immobilized on streptavidin coated biosensors, and their dissociation constants (KD) with the proteins were measured (Table 2). […]
(§2) General procedure for biotinylation
(§3) To a solution of free amine compounds in DMSO/H 2O (1/1, 0.5 ml) was added […]
(§4) The reaction was stirred at room temperature for 5 hours. Then the mixture was loaded onto a G-15 Sephadex column for purification. […] General procedure for BLI binding assay
(§5) The binding assay was performed on the Octet K2 System (Pall ForteBio). The biotinylated […]
(§6) compounds were absorbed to streptavidin (SA) sensor for 2 min. The sensor was then balanced in the assay buffer (PBS containing 0.005% P20) and dipped into protein solution in assay buffer at different concentration. After 5 min of association, the sensor was brought back to the previous assay

IL-8 = target: T2, IL-8 (Homo sapiens, UniProt P10145); assay: BLI binding assay, biotinylated compounds on streptavidin biosensors, IL-8; conditions: Table 2, read-out: K D IL-8
T2 sequence (P10145 21-99): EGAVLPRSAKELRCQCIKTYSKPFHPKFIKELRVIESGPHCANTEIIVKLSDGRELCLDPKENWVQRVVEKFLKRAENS
Description: as §1, §2, §3, §4, §5, §6

FGF-2 = FGF-2 (Homo sapiens, UniProt P09038); assay: BLI binding assay, biotinylated compounds on streptavidin biosensors, FGF-2
Description: as §1, §2
To a solution of free amine compounds in DMSO/H 2O (1/1, 0.5 ml) was added sulfo-NHS-LC-Biotin (5 equiv) and DIPEA (pH ~ 8.5). The reaction was stirred at room temperature for 5 hours. Then the mixture was loaded onto a G-15 Sephadex column for purification. […] General procedure for BLI binding assay
as §5
compounds were absorbed to streptavidin (SA) sensor for 2 min. The sensor was then balanced in the assay buffer (PBS containing 0.005% P20) and dipped into protein solution in assay buffer at different concentration. After 5 min of association, the sensor was brought back to the previous assay buffer for a 5 min dissociation step. At the end of the assay, the sensor was regenerated in 2 M NaCl to remove the bound protein. Each measurement was repeated 3 times on the same sensor. The control assay was done with another sensor loaded with saturated biotin solution. […]
MD trajectories were generated from the protein system without any ligand to relax the structure and minimize the pocket restrictions caused by the present ligand in the structure.
The geometries of compounds 2, 28 and 29 were optimized using the Gaussian 16 program package. The optimizations were performed using the AM1 method.1 The obtained Mulliken charges were used with the antechamber module of Amber 16 in the generation of parameters. The systems were prepared using the Leap module of AmberTools162 under the AMBER ff14SB and GAFF force fields. Each enzyme complex was solvated in a 14 Å cube of TIP4P-Ew water beyond the solute and 100 mM sodium chloride. The systems were relaxed under NVT conditions over six minimization procedures with decreasing restraints on the protein of 500.0, 200.0, 20.0, 10.0, 5.0 kcal/(mol Å2) to no restraints. The systems were then heated to 300 K over 30 ps. Atomistic molecular dynamics simulations were performed for 30 ns at 300 K and 1 atm using AMBER 16. The SHAKE algorithm constrained bonds involving hydrogen. 3 The trajectories were produced using Langevin dynamics and the pressure of the system was regulated with isotropic position scaling. Long -range electrostatic effects were modeled using the particle-mesh Ewald method with a 10 Å cutoff.
The produced trajectories were analyzed using AMBER 16 and visualized with MOE and the UCSF Chimera package. Free energy of binding was calculated for every picosecond using the Poisson Boltzmann model form the MMPBSA.py module of AmberTools and AMBER 16. The relative free energy trends between models were compared so solute entropy was neglected.
Following the general procedure for solid-phase peptide synthesis, peptide 29 was obtained in 52% […]
RP-HPLC retention time, tR = 24.4 min.
Following the general procedure for biotinylation, peptide 31 was obtained from 12-mer peptide 29 in 56% yield. The overall yield based on resin loading is 29%. HRMS: C65H103N15O28S [M - 2H]2- […]
Figure S1: Binding of synthetic compounds 1, 31 and 30 to protein FGF2 as measured by BLI (a-c respectively). The biotinylated compounds (2 μM ) were immobilized on streptavidin coated biosensors, and FGF2 was captured on biosensors with six concentrations at 291 nM, 145 nM, […], 39 nM, 20 nM, 10 nM. Fitting curves were shown in red lines. […]

[1] = BLI, Table 2, read-out: K D FGF2
[2] = Table S2, KD values from BLI measurements, read-out: Experimental KD

Chain of FGF-2 (P09038 143-288, species assumed): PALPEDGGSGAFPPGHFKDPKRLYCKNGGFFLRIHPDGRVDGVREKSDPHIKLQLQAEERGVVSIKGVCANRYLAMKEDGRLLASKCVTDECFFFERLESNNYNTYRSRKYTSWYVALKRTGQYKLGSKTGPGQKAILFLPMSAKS
Chain of CCL-13 (Q99616 17-98, species assumed): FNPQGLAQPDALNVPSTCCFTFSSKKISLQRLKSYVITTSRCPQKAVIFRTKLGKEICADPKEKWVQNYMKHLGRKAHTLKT

SMILES | inhibition at 3.3 µM (heparanase) | inhibition at 10 µM (heparanase) | inhibition at 33 µM (heparanase) | pKd (CCL-13) | pKd (IL-8) | pKd (FGF-2; [1]) | FGF-2 binding, fold higher than pentasaccharide 30 and peptide 31 (FGF-2; ratio of KD values) | pKd (FGF-2; [2]) | KD with CCL-13 (CCL-13) | K D CCL-13 (CCL-13; Table 2) | inhibition of heparanase at concentrations up to 100 μM (heparanase)
CC(C)C[C@H](NC(=O)CCCCCNC(=O)CCCC[C@@H]1SC[C@@H]2NC(=O)N[C@@H]21)C(=O)N[C@@H](CO)C(=O)NCC(=O)N[C@@H](CO[C@@H]1OC[C@@H](O[C@@H]2O[C@H](CO)[C@H](O)[C@H](O[C@@H]3O[C@H](CO)[C@H](O)[C@H](O[C@@H]4O[C@H](C(=O)O)[C@@H](O[C@H]5O[C@H](COS(=O)(=O)O)[C@@H](O)[C@H](O)[C@H]5NS(=O)(=O)O)[C@H](O)[C@H]4O)[C@H]3O)[C@H]2O)[C@H](O)[C@H]1O)C(=O)NCC(=O)N[C@@H](CC(=O)O)C(=O)N[C@@H](CC(C)C)C(=O)N[C@@H](CC(=O)O)C(=O)N[C@@H](CC(=O)O)C(=O)N[C@@H](CC(C)C)C(=O)N[C@@H](CCC(=O)O)C(=O)N[C@@H](CC(=O)O)C(=O)O [Compound 1] ({Biotin-Ahx}-LSGS(X1)GDLDDLED-OH) | < 0% | < 0% | < 0% | 6.30 | 7.55 | 8.30 | about 3 fold | – | – | – | neither peptide 31 nor glycopeptide 1 were able to inhibit heparanase
NCCCO[C@@H]1OC[C@@H](O[C@@H]2O[C@H](CO)[C@H](O)[C@H](O[C@@H]3O[C@H](CO)[C@H](O)[C@H](O[C@@H]4O[C@H](C(=O)O)[C@@H](O[C@H]5O[C@H](COS(=O)(=O)O)[C@@H](O)[C@H](O)[C@H]5NS(=O)(=O)O)[C@H](O)[C@H]4O)[C@H]3O)[C@H]2O)[C@H](O)[C@H]1O [Compound 28] | – | – | – | – | – | – | – | 7.84 | – | – | –
CC(C)C[C@H](NC(=O)[C@H](CC(=O)O)NC(=O)CNC(=O)[C@H](CO)NC(=O)CNC(=O)[C@H](CO)NC(=O)[C@@H](N)CC(C)C)C(=O)N[C@@H](CC(=O)O)C(=O)N[C@@H](CC(=O)O)C(=O)N[C@@H](CC(C)C)C(=O)N[C@@H](CCC(=O)O)C(=O)N[C@@H](CC(=O)O)C(=O)O [Compound 29] (H-LSGSGDLDDLED-OH) | – | – | – | – | – | – | – | 7.77 | – | – | –

More lines, main results first:

inhibition at 3.3 µM (heparanase) | inhibition at 10 µM (heparanase) | inhibition at 33 µM (heparanase) | pKd (CCL-13) | pKd (IL-8) | pKd (FGF-2; [1]) | FGF-2 binding, fold higher than pentasaccharide 30 and peptide 31 (FGF-2; ratio of KD values) | pKd (FGF-2; [2]) | KD with CCL-13 (CCL-13) | K D CCL-13 (CCL-13; Table 2) | SMILES | inhibition of heparanase at concentrations up to 100 μM (heparanase)
< 0% | 32% | 61% | – | 7.41 | 7.84 | – | – | did not exhibit much binding | Inactive | O=C(CCCCC1SCC2NC(=O)NC21)NCCCCCC(=O)NCCCOC1OCC(OC2OC(CO)C(O)C(OC3OC(CO)C(O)C(OC4OC(C(=O)O)C(OC5OC(COS(=O)(=O)O)C(O)C(O)C5NS(=O)(=O)O)C(O)C4O)C3O)C2O)C(O)C1O (stereo not drawn) [Compound 30] | –
< 0% | < 0% | < 0% | 7.04 | 7.12 | 7.77 | – | – | – | – | CC(C)C[C@H](NC(=O)CCCCCNC(=O)CCCC[C@@H]1SC[C@@H]2NC(=O)N[C@@H]21)C(=O)N[C@@H](CO)C(=O)NCC(=O)N[C@@H](CO)C(=O)NCC(=O)N[C@@H](CC(=O)O)C(=O)N[C@@H](CC(C)C)C(=O)N[C@@H](CC(=O)O)C(=O)N[C@@H](CC(=O)O)C(=O)N[C@@H](CC(C)C)C(=O)N[C@@H](CCC(=O)O)C(=O)N[C@@H](CC(=O)O)C(=O)O [Compound 31] ({Biotin-Ahx}-LSGSGDLDDLED-OH; N-terminus and C-terminus assumed) | neither peptide 31 nor glycopeptide 1 were able to inhibit heparanase
